In patent US6846934B2, “Photochromic diarylethene substituted with isoxazole group” (Korea Research Institute of Chemical Technology, priority 2001, dated 2005):

Experiments:
[1] = Dispersability of diarylethene compounds in polymer solution (photochromic thin film composition); format: physicochemical; set-up: key: ◯ = clear solution at RT; Δ = medium solubility; X = insoluble, phase separation and unclear solution; conditions: 10 wt. % diarylethene, chloroform + trichloroethylene, room temperature
Description: Solubilities of diarylethene compounds of the present invention and known diarylethene compounds were compared by dispersing in polycarbonate (PC) solution or fluorinated polyethylene.
Compared diarylethene compounds are 1-(6′-(5-phenylisoxazol) 2′-methylbenzo[b]thiophen-3′-yl)-2-(2″-methylbenzo[b]thiophen-3′-yl)hexafluorocyclopentene (PIMBTF6) prepared in Example 4 and 1,2-bis(2-methylbenzo[b]thiophen-3′-yl)hexafluorocyclopentene (BTF6) and 1-(6′-acetyl-2′-methylbenzo[b]thiophen-3′-yl)-2-(2″-methylbenzo[b]thiophen-3′-yl)hexafluorocyclopentene (AMBTF6) which are disclosed. Each thin film composition was prepared by dissolving 0.03 g (10 wt. %) of diarylethene compound and 0.27 g (90 wt. %) of polycarbonate (PC) or fluorinated polyethylene in a mixture of 1.2 g of chloroform and 1.2 g of trichloroethylene and stirring at room temperature for 6 hrs.

[2] = Dispersability of diarylethene compounds in fluorinated diacrylate monomer (TFBDA) or THF; format: physicochemical; set-up: key: ◯ = clear solution at RT; Δ = medium solubility; X = insoluble, phase separation and unclear solution; conditions: room temperature
Experimental: Solubilities of diarylethene compounds of the present invention and known diarylethene compounds were compared by dispersing in fluorinated diacrylate monomer (TFBDA) or THF.
The same diarylethene compounds used in Examples 6-7 and Comparative Examples 1-4 are used to obtain the desired composition. Each thin film composition was prepared by dissolving 0.01 g (10 wt. %) of diarylethene compound and 0.002 g (2 wt. %) of 1-hydroxycyclohexyl phenyl ketone as photopolymerization initiator in 0.088 g (88 wt. %) of TFBDA and stirring at room temperature for 30 min.

[3] = 90 wt. % fluorinated polyethylene (Xeonex 480)

Q: With `Cc1sc2ccccc2c1C1=C(c2c(C)sc3ccccc23)C(F)(F)C(F)(F)C1(F)F` [BTF6, 1,2-bis(2-methylbenzo[b]thiophen-3′-yl)hexafluorocyclopentene] as the compound, how does the Dispersability [1, 3] read?
A: Its Dispersability is “X”.

Q: And the Dispersability ([1]; 90 wt. % polycarbonate (PC))?
A: Its Dispersability is “◯”.

Q: What about the Dispersability ([2]; 10 wt. % diarylethene in TFBDA) of the same compound?
A: The Dispersability was “X”.

Q: Which Dispersability [1, 3] does the source give for `Cc1sc2ccccc2c1C1=C(c2c(C)sc3cc(-c4cc(-c5ccccc5)on4)ccc23)C(F)(F)C(F)(F)C1(F)F` [PIMBTF6, 1-(6′-(5-phenylisoxazol)-2′-methylbenzo[b]thiophen-3′-yl)-2-(2″-methylbenzo[b]thiophen-3′-yl)hexafluorocyclopentene] here?
A: The Dispersability was “Δ”.

Q: What about the Dispersability ([1]; 90 wt. % polycarbonate (PC)) of the same compound?
A: The Dispersability was “◯”.

Q: And the Dispersability ([2]; 10 wt. % diarylethene in TFBDA)?
A: Its Dispersability is “◯”.

Q: And the Dispersability ([2]; solvent THF)?
A: The Dispersability was “◯”.

Q: For `Cc1sc2ccccc2c1C1=C(c2c(C)sc3cc(-c4cc(CO)on4)ccc23)C(F)(F)C(F)(F)C1(F)F` [IMBTF6, 1-(6′-(5-hydroxymethylisoxazol)-2′-methylbenzo[b]thiophen-3′-yl)-2-(2″-methylbenzo[b]thiophen-3′-yl)hexafluorocyclopentene], which Dispersability ([2]; 10 wt. % diarylethene in TFBDA) is on record?
A: Its Dispersability is “X”.

Q: What about the Dispersability ([2]; solvent THF) of the same compound?
A: The Dispersability was “◯”.

Q: With `Cc1sc2cc(-c3cc(-c4ccccc4)on3)ccc2c1C1=C(c2c(C)sc3cc(-c4cc(-c5ccccc5)on4)ccc23)C(F)(F)C(F)(F)C1(F)F` [DPIMBTF6, di(6′-phenylisoxazol-2′-methylbenzo[b]thiophen-3′-yl)hexafluorocyclopentene] as the compound, how does the Dispersability ([2]; 10 wt. % diarylethene in TFBDA) read?
A: Its Dispersability is “◯”.

Q: Which Dispersability [1, 3] does the source give for `CC(=O)c1ccc2c(C3=C(c4c(C)sc5ccccc45)C(F)(F)C(F)(F)C3(F)F)c(C)sc2c1` [AMBTF6, 1-(6′-acetyl-2′-methylbenzo[b]thiophen-3′-yl)-2-(2″-methylbenzo[b]thiophen-3′-yl)hexafluorocyclopentene] here?
A: Its Dispersability is “X”.

Q: And the Dispersability ([1]; 90 wt. % polycarbonate (PC))?
A: The Dispersability was “X”.

Q: And the Dispersability ([2]; 10 wt. % diarylethene in TFBDA)?
A: Its Dispersability is “Δ”.

Q: And the Dispersability ([2]; solvent THF)?
A: Its Dispersability is “◯”.
